The values below come from patent publication US10945966B2, “PEGylated lipid nanoparticle with bioactive lipophilic compound” (Eyesiu Medicines B.V., priority 2015, dated 2021).

The series concerns imiquimod (IMQ)-induced psoriasis-like skin inflammation. As to the kind of experiment: Imiquimod (IMQ)-induced psoriasis-like skin inflammation. Type of series: in vivo, mice. To be noted: daily topical. Here is the method: A nanoparticle composition comprising the macrolide tacrolimus was produced as detailed in Example 2. The resulting composition was formulated in a spray suitable for topical delivery on the skin. The efficacy of the produced nanoparticles was subsequently tested in an imiquimod (IMQ)-induced psoriasis-like skin inflammation in mice. To this end, psoriasis-like skin inflammation was induced on the ears and shaved backs of the mice by the daily application of 50 mg of 5% Imiquimod (IMQ) cream. Compared to naïve mice, animals treated with IMQ developed clinical signs of disease including statistically significant increases in psoriasis clinical score and ear thickness over time as well as increased spleen weight (splenomegaly) upon termination of the experiment.

As to `C[C@H]1C[C@H]2[C@@H]3CCC4=CC(=O)C=C[C@]4(C)[C@@]3(F)[C@@H](O)C[C@]2(C)[C@@]1(O)C(=O)CCl` [Clobetasol], the body weight result (unwanted side effect) was “significant reduction”. For the same compound, the spleen weight entry (compared to IMQ-only treated mice) was “significantly reduced”. Besides, the psoriasis clinical score entry (compared to IMQ-only treated mice, significant by day 3 and throughout the rest of the study) was “significantly reduced”. The ear thickness entry (compared to IMQ-only treated mice, significant by day 5 and throughout the rest of the study) is “significantly reduced”.
